Data: ChEMBL document CHEMBL5058645, “Data for DCP probe JNJ-6204” (2022)

Columns and labels:
[1] = biological target: Protein kinase C beta type (Homo sapiens) (UniProt P05771); assay: PKCbetaII (h) Kinase panel; conditions: Compound concentration 1.0 uM, tested as the 2H-labelled form
[2] = biological target: Interleukin-1 receptor-associated kinase 1 (Homo sapiens) (UniProt P51617); assay: IRAK1(h) Kinase panel; conditions: Compound concentration 1.0 uM, tested as the 2H-labelled form
[3] = biological target: Tyrosine-protein kinase receptor UFO (Homo sapiens) (UniProt P30530); assay: Axl(h) Kinase panel; conditions: Compound concentration 1.0 uM, tested as the 2H-labelled form
[4] = biological target: Serine/threonine-protein kinase MRCK gamma (Homo sapiens) (UniProt Q6DT37); assay: MRCKgamma(h) Kinase panel; conditions: Compound concentration 1.0 uM, tested as the 2H-labelled form
[5] = biological target: Tyrosine-protein kinase Srms (Homo sapiens) (UniProt Q9H3Y6); assay: SRMS(h) Kinase panel; conditions: Compound concentration 1.0 uM, tested as the 2H-labelled form
[6] = biological target: Receptor tyrosine-protein kinase erbB-4 (Homo sapiens) (UniProt Q15303); assay: ErbB4(h) Kinase panel; conditions: Compound concentration 1.0 uM, tested as the 2H-labelled form
[7] = biological target: 5-hydroxytryptamine receptor 2C (Homo sapiens) (UniProt P28335); conditions: Compound concentration 10.0 uM, tested as the 2H-labelled form
[8] = biological target: Fibroblast growth factor receptor 1 (Homo sapiens) (UniProt P11362); assay: FGFR1(h) Kinase panel; conditions: Compound concentration 1.0 uM, tested as the 2H-labelled form
[9] = biological target: Misshapen-like kinase 1 (Homo sapiens) (UniProt Q8N4C8); assay: MINK(h) Kinase panel; conditions: Compound concentration 1.0 uM, tested as the 2H-labelled form
[10] = biological target: Insulin receptor-related protein (Homo sapiens) (UniProt P14616); assay: IRR(h) Kinase panel; conditions: Compound concentration 1.0 uM, tested as the 2H-labelled form
[11] = biological target: Serine/threonine-protein kinase SBK1 (Homo sapiens) (UniProt Q52WX2); assay: SBK1(h) Kinase panel; conditions: Compound concentration 1.0 uM, tested as the 2H-labelled form
[12] = biological target: Mitogen-activated protein kinase 11 (Homo sapiens, UniProt Q15759); assay: SAPK2b(h) Kinase panel; conditions: Compound concentration 1.0 uM, tested as the 2H-labelled form
[13] = biological target: cGMP-dependent protein kinase 2 (Homo sapiens) (UniProt Q13237); assay: PRKG2(h) Kinase panel; conditions: Compound concentration 1.0 uM, tested as the 2H-labelled form
[14] = biological target: Protein-tyrosine kinase 6 (Homo sapiens) (UniProt Q13882); assay: BRK(h) Kinase panel; conditions: Compound concentration 1.0 uM, tested as the 2H-labelled form
[15] = biological target: Tyrosine-protein kinase BTK (Homo sapiens) (UniProt Q06187); assay: BTK(h) Kinase panel; conditions: Compound concentration 1.0 uM, tested as the 2H-labelled form
[16] = biological target: Muscarinic acetylcholine receptor M2 (Homo sapiens) (UniProt P08172); conditions: Compound concentration 10.0 uM, tested as the 2H-labelled form
[17] = biological target: Serine/threonine-protein kinase PLK1 (Homo sapiens) (UniProt P53350); assay: Plk1(h) Kinase panel; conditions: Compound concentration 1.0 uM, tested as the 2H-labelled form
[18] = biological target: Serine/threonine-protein kinase PAK 2 (Homo sapiens) (UniProt Q13177); assay: PAK2(h) Kinase panel; conditions: Compound concentration 1.0 uM, tested as the 2H-labelled form
[19] = biological target: Dual specificity tyrosine-phosphorylation-regulated kinase 1B (Homo sapiens) (UniProt Q9Y463); assay: DYRK1B(h) Kinase panel; conditions: Compound concentration 1.0 uM, tested as the 2H-labelled form
Dual specificity tyrosine-phosphorylation-regulated kinase 1B (Homo sapiens), sequence (Q9Y463 whole entry, looked up): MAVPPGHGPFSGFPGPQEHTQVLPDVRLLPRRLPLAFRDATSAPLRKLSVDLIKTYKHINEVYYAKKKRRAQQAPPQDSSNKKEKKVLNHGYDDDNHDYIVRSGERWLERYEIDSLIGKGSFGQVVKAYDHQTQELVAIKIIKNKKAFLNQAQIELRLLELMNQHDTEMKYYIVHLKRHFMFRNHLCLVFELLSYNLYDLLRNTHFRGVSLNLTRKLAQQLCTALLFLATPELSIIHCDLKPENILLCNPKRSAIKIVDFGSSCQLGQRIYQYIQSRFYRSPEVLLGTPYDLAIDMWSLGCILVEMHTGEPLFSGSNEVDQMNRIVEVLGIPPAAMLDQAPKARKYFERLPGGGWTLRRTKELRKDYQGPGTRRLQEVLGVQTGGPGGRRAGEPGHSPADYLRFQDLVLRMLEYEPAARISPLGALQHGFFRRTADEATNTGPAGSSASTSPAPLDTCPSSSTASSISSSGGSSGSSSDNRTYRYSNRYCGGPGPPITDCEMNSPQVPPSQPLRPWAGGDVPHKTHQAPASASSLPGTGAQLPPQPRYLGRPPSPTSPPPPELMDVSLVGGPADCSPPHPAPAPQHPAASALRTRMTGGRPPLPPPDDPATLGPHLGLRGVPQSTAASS

[20] = biological target: Serine/threonine-protein kinase Sgk2 (Homo sapiens) (UniProt Q9HBY8); assay: SGK2(h) Kinase panel; conditions: Compound concentration 1.0 uM, tested as the 2H-labelled form
Serine/threonine-protein kinase Sgk2 (Homo sapiens), sequence (Q9HBY8 whole entry): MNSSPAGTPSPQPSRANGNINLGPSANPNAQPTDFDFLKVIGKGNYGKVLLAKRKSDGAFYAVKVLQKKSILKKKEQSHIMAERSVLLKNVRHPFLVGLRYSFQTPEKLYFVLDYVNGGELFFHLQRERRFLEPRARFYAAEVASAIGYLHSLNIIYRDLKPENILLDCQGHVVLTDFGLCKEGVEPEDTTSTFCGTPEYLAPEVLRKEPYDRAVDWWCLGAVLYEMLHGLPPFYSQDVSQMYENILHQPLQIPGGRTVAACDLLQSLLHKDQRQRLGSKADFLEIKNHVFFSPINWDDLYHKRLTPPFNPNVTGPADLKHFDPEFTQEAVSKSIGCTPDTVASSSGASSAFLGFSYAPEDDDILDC

[21] = biological target: Dual specificity protein kinase CLK4 (Homo sapiens) (UniProt Q9HAZ1); assay: CLK4(h) Kinase panel; conditions: Compound concentration 1.0 uM, tested as the 2H-labelled form
Dual specificity protein kinase CLK4 (Homo sapiens), sequence (Q9HAZ1 whole entry, looked up): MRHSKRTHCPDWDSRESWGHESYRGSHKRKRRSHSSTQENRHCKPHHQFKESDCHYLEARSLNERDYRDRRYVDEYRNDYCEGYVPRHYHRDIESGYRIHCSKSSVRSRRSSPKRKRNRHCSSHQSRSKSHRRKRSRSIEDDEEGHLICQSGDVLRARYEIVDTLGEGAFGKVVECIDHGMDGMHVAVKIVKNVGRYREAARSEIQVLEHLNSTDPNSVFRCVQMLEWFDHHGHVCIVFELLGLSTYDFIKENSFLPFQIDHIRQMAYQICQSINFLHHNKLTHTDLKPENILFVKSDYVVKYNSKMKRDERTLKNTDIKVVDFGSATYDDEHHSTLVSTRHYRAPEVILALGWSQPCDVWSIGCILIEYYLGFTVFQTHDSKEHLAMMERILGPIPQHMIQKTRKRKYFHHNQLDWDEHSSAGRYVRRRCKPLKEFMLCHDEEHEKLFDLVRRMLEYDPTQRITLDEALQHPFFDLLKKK

[22] = biological target: Serine/threonine-protein kinase PLK2 (Homo sapiens) (UniProt Q9NYY3); assay: Snk(h) Kinase panel; conditions: Compound concentration 1.0 uM, tested as the 2H-labelled form
[23] = biological target: Transcription initiation factor TFIID subunit 1-like (Homo sapiens) (UniProt Q8IZX4); assay: TAF1L(h) Kinase panel; conditions: Compound concentration 1.0 uM, tested as the 2H-labelled form
[24] = biological target: Serine/threonine-protein kinase 35 (Homo sapiens) (UniProt Q8TDR2); assay: CLIK1(h) Kinase panel; conditions: Compound concentration 1.0 uM, tested as the 2H-labelled form
[25] = biological target: Tyrosine-protein kinase FRK (Homo sapiens) (UniProt P42685); assay: PTK5(h) Kinase panel; conditions: Compound concentration 1.0 uM, tested as the 2H-labelled form
[26] = biological target: Muscarinic acetylcholine receptor M4 (Homo sapiens) (UniProt P08173); conditions: Compound concentration 10.0 uM, tested as the 2H-labelled form
[27] = biological target: Tyrosine-protein kinase ABL2 (Homo sapiens) (UniProt P42684); assay: Arg(h) Kinase panel; conditions: Compound concentration 1.0 uM, tested as the 2H-labelled form
[28] = biological target: Activin receptor type-1-like (Homo sapiens) (UniProt P37023); assay: ALK1(h) Kinase panel; conditions: Compound concentration 1.0 uM, tested as the 2H-labelled form
[29] = biological target: Vascular endothelial growth factor receptor 3 (Homo sapiens) (UniProt P35916); assay: Flt4(h) Kinase panel; conditions: Compound concentration 1.0 uM, tested as the 2H-labelled form
[30] = biological target: Inhibitor of nuclear factor kappa-B kinase subunit alpha (Homo sapiens) (UniProt O15111); assay: IKKalpha(h) Kinase panel; conditions: Compound concentration 1.0 uM, tested as the 2H-labelled form
Inhibitor of nuclear factor kappa-B kinase subunit alpha (Homo sapiens), sequence (O15111 whole entry): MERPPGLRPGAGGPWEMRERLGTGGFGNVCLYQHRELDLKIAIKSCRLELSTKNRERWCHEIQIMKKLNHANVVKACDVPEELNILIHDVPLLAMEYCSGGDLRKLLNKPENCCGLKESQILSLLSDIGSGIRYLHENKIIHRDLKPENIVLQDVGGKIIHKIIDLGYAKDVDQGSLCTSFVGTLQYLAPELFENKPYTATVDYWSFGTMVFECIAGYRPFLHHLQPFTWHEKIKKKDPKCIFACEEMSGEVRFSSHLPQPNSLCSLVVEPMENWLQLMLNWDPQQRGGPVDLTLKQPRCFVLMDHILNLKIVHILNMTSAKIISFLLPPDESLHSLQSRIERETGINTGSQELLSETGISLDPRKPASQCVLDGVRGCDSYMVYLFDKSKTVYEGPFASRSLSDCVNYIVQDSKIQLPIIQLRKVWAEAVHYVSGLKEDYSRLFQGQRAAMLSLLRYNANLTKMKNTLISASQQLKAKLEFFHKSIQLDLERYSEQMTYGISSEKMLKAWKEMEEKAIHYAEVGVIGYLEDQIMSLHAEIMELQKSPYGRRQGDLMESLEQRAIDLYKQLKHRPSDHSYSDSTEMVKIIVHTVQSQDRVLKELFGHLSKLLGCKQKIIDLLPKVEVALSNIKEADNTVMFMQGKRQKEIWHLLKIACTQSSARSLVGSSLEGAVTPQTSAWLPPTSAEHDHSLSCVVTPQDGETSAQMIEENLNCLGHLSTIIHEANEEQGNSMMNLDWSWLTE

[31] = biological target: Serine/threonine-protein kinase B-raf (Homo sapiens) (UniProt P15056); assay: B-Raf(h) Kinase panel; conditions: Compound concentration 1.0 uM, tested as the 2H-labelled form
[32] = biological target: Serine/threonine-protein kinase MAK (Homo sapiens) (UniProt P20794); assay: MAK(h) Kinase panel; conditions: Compound concentration 1.0 uM, tested as the 2H-labelled form
Serine/threonine-protein kinase MAK (Homo sapiens), sequence (P20794 whole entry): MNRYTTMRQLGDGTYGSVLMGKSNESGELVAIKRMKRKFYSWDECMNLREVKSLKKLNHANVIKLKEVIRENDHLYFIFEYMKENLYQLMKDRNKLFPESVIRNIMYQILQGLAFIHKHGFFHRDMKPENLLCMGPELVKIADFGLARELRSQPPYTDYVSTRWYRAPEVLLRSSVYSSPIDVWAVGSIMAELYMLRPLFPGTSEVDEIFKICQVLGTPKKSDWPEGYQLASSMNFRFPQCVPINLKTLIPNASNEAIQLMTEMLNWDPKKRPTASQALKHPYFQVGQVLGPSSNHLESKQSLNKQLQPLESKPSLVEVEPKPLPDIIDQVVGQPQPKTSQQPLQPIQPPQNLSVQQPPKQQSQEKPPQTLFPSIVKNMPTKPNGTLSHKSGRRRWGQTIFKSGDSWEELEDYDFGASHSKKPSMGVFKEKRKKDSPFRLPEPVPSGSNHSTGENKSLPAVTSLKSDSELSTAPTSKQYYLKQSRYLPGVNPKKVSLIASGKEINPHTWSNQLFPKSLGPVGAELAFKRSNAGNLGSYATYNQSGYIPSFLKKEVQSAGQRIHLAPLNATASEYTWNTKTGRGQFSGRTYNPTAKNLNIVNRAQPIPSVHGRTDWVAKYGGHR

[33] = biological target: Ephrin type-B receptor 4 (Homo sapiens) (UniProt P54760); assay: EphB4(h) Kinase panel; conditions: Compound concentration 1.0 uM, tested as the 2H-labelled form
[34] = biological target: Tyrosine-protein kinase Fes/Fps (Homo sapiens) (UniProt P07332); assay: Fes(h) Kinase panel; conditions: Compound concentration 1.0 uM, tested as the 2H-labelled form
[35] = biological target: Mitogen-activated protein kinase kinase kinase 7 (Homo sapiens) (UniProt O43318); assay: TAK1(h) Kinase panel; conditions: Compound concentration 1.0 uM, tested as the 2H-labelled form
[36] = biological target: Serine/threonine-protein kinase DCLK1 (Homo sapiens) (UniProt O15075); assay: DCAMKL1(h) Kinase panel; conditions: Compound concentration 1.0 uM, tested as the 2H-labelled form
[37] = biological target: Ribosomal protein S6 kinase alpha-1 (Homo sapiens) (UniProt Q15418); assay: Rsk1(h) Kinase panel; conditions: Compound concentration 1.0 uM, tested as the 2H-labelled form
[38] = biological target: Wee1-like protein kinase 2 (Homo sapiens) (UniProt P0C1S8); assay: Wee1B(h) Kinase panel; conditions: Compound concentration 1.0 uM, tested as the 2H-labelled form
Wee1-like protein kinase 2 (Homo sapiens), sequence (P0C1S8 whole entry, looked up): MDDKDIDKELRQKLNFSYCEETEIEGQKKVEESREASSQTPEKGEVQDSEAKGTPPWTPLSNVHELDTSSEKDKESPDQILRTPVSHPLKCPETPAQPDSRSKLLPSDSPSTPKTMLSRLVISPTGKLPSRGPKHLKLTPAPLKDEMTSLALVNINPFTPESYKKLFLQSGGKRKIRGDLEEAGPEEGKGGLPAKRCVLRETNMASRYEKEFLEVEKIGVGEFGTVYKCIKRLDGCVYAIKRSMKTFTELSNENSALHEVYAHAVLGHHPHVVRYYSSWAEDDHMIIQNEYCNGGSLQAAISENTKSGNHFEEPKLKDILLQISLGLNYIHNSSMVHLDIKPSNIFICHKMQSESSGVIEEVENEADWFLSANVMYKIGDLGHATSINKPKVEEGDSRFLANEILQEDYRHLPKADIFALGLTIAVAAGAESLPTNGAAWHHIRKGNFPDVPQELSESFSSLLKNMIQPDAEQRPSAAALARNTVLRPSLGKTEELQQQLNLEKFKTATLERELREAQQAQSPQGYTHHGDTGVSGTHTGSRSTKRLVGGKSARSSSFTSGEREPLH

[39] = biological target: Death-associated protein kinase 3 (Homo sapiens) (UniProt O43293); assay: ZIPK(h) Kinase panel; conditions: Compound concentration 1.0 uM, tested as the 2H-labelled form
[40] = biological target: Dual specificity protein kinase TTK (Homo sapiens) (UniProt P33981); assay: TTK(h) Kinase panel; conditions: Compound concentration 1.0 uM, tested as the 2H-labelled form
[41] = biological target: Serine/threonine-protein kinase PAK 3 (Homo sapiens) (UniProt O75914); assay: PAK3(h) Kinase panel; conditions: Compound concentration 1.0 uM, tested as the 2H-labelled form
Serine/threonine-protein kinase PAK 3 (Homo sapiens), sequence (O75914 whole entry, looked up): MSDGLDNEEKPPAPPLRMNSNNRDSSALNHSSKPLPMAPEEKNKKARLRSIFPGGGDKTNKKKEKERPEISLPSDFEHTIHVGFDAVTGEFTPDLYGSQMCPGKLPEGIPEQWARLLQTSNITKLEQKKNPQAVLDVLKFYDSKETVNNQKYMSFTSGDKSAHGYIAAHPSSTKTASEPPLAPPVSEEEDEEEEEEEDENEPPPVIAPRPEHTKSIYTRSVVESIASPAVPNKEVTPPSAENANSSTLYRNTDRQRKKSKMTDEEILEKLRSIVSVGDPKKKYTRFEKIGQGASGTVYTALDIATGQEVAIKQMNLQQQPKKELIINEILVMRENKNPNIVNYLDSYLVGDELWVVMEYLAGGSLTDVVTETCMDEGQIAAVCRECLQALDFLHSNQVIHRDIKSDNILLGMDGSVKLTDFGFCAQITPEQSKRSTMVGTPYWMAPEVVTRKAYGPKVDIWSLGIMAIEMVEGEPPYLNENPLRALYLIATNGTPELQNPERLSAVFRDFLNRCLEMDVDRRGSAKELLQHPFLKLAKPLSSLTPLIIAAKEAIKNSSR

[42] = biological target: Serine/threonine-protein kinase tousled-like 1 (Homo sapiens) (UniProt Q9UKI8); assay: TLK1(h) Kinase panel; conditions: Compound concentration 1.0 uM, tested as the 2H-labelled form
[43] = biological target: Cyclin-dependent kinase 3 (Homo sapiens) (UniProt Q00526); assay: CDK3/cyclinE(h) Kinase panel; conditions: Compound concentration 1.0 uM, tested as the 2H-labelled form
[44] = biological target: Myosin light chain kinase 2, skeletal/cardiac muscle (Homo sapiens) (UniProt Q9H1R3); assay: MYLK2(h) Kinase panel; conditions: Compound concentration 1.0 uM, tested as the 2H-labelled form
[45] = biological target: Leukocyte tyrosine kinase receptor (Homo sapiens) (UniProt P29376); assay: LTK(h) Kinase panel; conditions: Compound concentration 1.0 uM, tested as the 2H-labelled form
Leukocyte tyrosine kinase receptor (Homo sapiens), sequence (P29376 whole entry, canonical isoform): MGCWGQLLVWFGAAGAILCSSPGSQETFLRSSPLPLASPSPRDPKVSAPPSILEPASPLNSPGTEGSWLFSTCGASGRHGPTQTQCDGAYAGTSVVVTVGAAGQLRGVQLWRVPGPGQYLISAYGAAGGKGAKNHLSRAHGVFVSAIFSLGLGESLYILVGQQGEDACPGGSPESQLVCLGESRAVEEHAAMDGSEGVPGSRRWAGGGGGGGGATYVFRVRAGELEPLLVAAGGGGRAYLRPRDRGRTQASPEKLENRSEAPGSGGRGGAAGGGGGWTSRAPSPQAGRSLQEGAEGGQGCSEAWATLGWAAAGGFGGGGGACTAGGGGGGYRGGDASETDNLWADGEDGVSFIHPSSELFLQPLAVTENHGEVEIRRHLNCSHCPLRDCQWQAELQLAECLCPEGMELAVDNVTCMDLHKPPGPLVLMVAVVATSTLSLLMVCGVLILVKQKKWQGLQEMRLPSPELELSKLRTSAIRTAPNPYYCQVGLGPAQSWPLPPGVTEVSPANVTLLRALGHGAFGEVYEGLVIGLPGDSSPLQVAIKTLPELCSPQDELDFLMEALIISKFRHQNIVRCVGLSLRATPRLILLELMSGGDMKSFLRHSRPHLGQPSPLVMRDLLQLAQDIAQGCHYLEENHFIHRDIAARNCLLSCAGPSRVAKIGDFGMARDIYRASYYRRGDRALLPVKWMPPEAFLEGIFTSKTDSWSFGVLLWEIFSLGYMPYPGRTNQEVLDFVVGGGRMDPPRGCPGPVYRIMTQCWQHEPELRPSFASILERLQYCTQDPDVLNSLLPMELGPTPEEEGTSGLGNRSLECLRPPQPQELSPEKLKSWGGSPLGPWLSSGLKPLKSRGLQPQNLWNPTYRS

[46] = biological target: Casein kinase I isoform gamma-3 (Homo sapiens) (UniProt Q9Y6M4); assay: CK1gamma3(h) Kinase panel; conditions: Compound concentration 1.0 uM, tested as the 2H-labelled form
[47] = biological target: Calcium/calmodulin-dependent protein kinase type 1 (Homo sapiens) (UniProt Q14012); assay: CaMKI(h) Kinase panel; conditions: Compound concentration 1.0 uM, tested as the 2H-labelled form
[48] = biological target: Interleukin-1 receptor-associated kinase 4 (Homo sapiens) (UniProt Q9NWZ3); assay: IRAK4(h) Kinase panel; conditions: Compound concentration 1.0 uM, tested as the 2H-labelled form
[49] = biological target: Glycogen synthase kinase-3 beta (Homo sapiens) (UniProt P49841); assay: GSK3β(h) Kinase panel; conditions: Compound concentration 1.0 uM, tested as the 2H-labelled form
[50] = biological target: Mitogen-activated protein kinase 1 (Homo sapiens) (UniProt P28482); assay: MAPK1(h) Kinase panel; conditions: Compound concentration 1.0 uM, tested as the 2H-labelled form
[51] = biological target: D(4) dopamine receptor (Homo sapiens) (UniProt P21917); conditions: Compound concentration 10.0 uM, tested as the 2H-labelled form
[52] = biological target: Dual specificity protein kinase CLK1 (Homo sapiens) (UniProt P49759); assay: CLK1(h) Kinase panel; conditions: Compound concentration 1.0 uM, tested as the 2H-labelled form

Measured: inhibition

CC1(C)Cn2nc(-c3ccc(F)cn3)c(-c3ccnc4[nH]ncc34)c2CO1
inactive: [1] -3% | [2] 15% | [3] 16% | [4] 3% | [5] 6% | [6] 19% | [7] -1.69% | [8] 5% | [9] 2% | [10] -4% | [11] -1% | [12] -3% | [13] 11% | [14] -1% | [15] -4% | [16] -0.4% | [17] 15% | [18] -10% | [19] -10% | [20] 9% | [21] 15% | [22] -4% | [23] 3% | [24] 13% | [25] 11% | [26] 1.83% | [27] 7% | [28] 4% | [29] 7% | [30] 8% | [31] 16% | [32] 10% | [33] -2% | [34] 14% | [35] -5% | [36] 10% | [37] 9% | [38] -1% | [39] 13% | [40] 10% | [41] 9% | [42] 6% | [43] -8% | [44] 23% | [45] 13% | [46] -2% | [47] 5% | [48] -7% | [49] 4% | [50] 20% | [51] -5.66% | [52] 6%
